Data published in ChEMBL document CHEMBL1201862, “PubChem BioAssay data set” (2004).
Activity calls are given as the source filed them.

Assays:
[1] = cytotoxicity toward NIH3T3 fibroblasts, dose response, counter-screen, cell-based, ATP luminescence, mouse fibroblasts (AID 2010); format: functional;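 further: cells exposed to compound for about 90 hours before reading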
[2] = molecular target: T1, Rac GTPase-activating protein 1 (Homo sapiens, UniProt Q9H0H5); assay: MgcRacGAP GTPase-activating activity inhibitors, confirmation, biochemical, ADP Hunter fluorescence, primary and confirmatory (AID 624330); format: functional
T1 sequence (Q9H0H5 whole entry): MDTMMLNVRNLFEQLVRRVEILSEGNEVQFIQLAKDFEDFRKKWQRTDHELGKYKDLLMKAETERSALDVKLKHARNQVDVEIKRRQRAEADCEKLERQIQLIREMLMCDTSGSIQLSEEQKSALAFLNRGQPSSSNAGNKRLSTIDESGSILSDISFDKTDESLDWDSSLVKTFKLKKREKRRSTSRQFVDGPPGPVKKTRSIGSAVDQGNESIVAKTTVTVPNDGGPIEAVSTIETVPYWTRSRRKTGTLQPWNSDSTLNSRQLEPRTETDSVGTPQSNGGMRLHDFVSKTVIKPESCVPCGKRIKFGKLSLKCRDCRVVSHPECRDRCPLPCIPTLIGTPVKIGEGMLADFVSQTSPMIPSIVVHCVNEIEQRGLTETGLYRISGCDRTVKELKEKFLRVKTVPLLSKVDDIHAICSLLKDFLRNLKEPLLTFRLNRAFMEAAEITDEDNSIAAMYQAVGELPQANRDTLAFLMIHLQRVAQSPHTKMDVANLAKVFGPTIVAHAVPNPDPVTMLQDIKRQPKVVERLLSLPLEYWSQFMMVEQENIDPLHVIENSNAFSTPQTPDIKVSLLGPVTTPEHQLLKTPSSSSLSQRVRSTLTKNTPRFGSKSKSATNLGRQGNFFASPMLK

[3] = HeLa cell cytotoxicity, dose response, cytotoxicity control for MgcRacGAP inhibitor project (AID 624300); format: functional
[4] = molecular target: T2, Ubiquitin-conjugating enzyme E2 N (Homo sapiens, UniProt P61088); format: functional;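 further: Dose-response confirmation in a TR-FRET assay detecting UBC13-driven polyubiquitin chain formation, inhibition measured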
T2 sequence (P61088 whole entry): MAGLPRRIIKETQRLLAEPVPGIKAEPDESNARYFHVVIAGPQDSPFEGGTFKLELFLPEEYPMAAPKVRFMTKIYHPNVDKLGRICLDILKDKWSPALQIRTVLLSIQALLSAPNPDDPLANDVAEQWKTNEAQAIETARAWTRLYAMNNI

[5] = microbe, parasite or virus in culture; format: functional; details: Mycobacterium tuberculosis
[6] = inhibitors of intracellular T. cruzi replication, confirmation, NIH3T3 host cells, beta-gal luminescence (AID 2044); format: functional, cell-based;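 further: intracellular parasites grown in NIH/3T3 mouse fibroblasts as host cells; luminescent beta-galactosidase reporter signal from transgenic T. cruzi replicating inside host cells; inhibitors lower the luminescence signal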
[7] = molecular target: Induced myeloid leukemia cell differentiation protein Mcl-1 (Homo sapiens, UniProt Q07820); format: functional
[8] = molecular target: DNA (cytosine-5)-methyltransferase 1 (Homo sapiens, UniProt P26358); assay: DNMT1 methyltransferase inhibitors, confirmation, biochemical, fluorescent molecular beacon (AID 602386); format: functional
[9] = molecular target: Large T antigen (Simian virus 40, UniProt P03070); format: functional, Betapolyomavirus macacae;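 further: Confirmatory-stage PubChem screen for compounds that inhibit SV40 T antigen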
[10] = molecular target: T3, Histone-lysine N-methyltransferase NSD2 (Homo sapiens, UniProt O96028); format: biochemical
T3 sequence (O96028 whole entry): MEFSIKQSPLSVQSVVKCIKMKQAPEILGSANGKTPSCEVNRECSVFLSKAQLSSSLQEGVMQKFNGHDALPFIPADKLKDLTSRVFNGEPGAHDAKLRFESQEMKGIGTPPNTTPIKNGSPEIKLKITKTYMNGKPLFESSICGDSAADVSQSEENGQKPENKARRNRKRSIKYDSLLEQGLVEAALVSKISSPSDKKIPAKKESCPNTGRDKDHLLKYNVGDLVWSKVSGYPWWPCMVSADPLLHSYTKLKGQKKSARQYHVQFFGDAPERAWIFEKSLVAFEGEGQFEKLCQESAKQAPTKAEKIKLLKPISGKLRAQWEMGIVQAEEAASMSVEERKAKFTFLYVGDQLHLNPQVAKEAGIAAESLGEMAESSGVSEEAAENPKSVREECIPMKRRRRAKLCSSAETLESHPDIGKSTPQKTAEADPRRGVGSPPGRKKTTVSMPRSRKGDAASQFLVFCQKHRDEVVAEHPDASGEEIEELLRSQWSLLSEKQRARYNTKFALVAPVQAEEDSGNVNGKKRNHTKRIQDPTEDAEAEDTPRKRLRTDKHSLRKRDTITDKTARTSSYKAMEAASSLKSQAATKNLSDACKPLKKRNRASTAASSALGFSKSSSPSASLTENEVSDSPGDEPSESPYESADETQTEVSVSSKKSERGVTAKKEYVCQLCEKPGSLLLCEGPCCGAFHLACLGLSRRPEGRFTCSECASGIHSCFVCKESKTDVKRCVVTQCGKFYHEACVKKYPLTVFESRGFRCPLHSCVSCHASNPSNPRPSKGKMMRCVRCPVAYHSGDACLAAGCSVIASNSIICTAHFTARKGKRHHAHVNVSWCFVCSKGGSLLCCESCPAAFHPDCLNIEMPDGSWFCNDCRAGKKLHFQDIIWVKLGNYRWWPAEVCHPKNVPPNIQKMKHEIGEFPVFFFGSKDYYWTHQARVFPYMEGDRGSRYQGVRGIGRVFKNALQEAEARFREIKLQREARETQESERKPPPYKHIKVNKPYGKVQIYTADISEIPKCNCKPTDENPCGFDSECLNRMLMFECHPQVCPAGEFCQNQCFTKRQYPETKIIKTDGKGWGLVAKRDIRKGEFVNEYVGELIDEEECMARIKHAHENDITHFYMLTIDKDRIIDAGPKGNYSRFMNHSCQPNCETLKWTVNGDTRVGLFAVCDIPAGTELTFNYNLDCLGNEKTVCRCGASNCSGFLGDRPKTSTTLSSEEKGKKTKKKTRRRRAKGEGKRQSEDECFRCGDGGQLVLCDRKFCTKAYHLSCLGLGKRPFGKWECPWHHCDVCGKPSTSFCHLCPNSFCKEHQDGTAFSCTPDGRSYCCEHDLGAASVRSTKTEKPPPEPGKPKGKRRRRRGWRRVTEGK

[11] = molecular target: T4, Small ubiquitin-related modifier 1 (Homo sapiens, UniProt P63165); assay: inhibitors of SUMO1 peptide binding, dose response, biochemical, fluorescence polarization, uHTS hits (AID 624382); format: functional; details: read-out: IC50_Mean
[12] = molecular target: T4, Small ubiquitin-related modifier 1; assay: inhibitors of SUMO1 partner interactions, dose response, biochemical, FRET (AID 624383); format: functional; details: read-out: IC50_Mean
[13] = molecular target: Photoreceptor-specific nuclear receptor (Homo sapiens, UniProt Q9Y5X4); format: functional, cell-based;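 further: CHO-S cells with Gal4-NCOR and VP16-NR2E3 two-hybrid luciferase reporter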
[14] = molecular target: T5, Low molecular weight phosphotyrosine protein phosphatase (Homo sapiens, UniProt P24666); format: functional; details: read-out: IC50_Mean
T5 sequence (P24666 whole entry): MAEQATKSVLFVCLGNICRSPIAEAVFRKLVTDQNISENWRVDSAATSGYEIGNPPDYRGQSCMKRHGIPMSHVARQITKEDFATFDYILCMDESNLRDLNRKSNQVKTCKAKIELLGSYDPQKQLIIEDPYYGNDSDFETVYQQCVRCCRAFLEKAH

[15] = molecular target: T5, Low molecular weight phosphotyrosine protein phosphatase; format: functional; details: read-out: IC50_Mean; remark: listed apart in the source
[16] = molecular target: Beta-lactamase (Salmonella choleraesuis (strain SC-B67), UniProt Q5J463); assay: Epi-absorbance-based counterscreen for selective VIM-2 inhibitors: dose response biochemical high throughput screening assay to identify inhibitors of TEM-1 serine-beta-lactamase.
[17] = molecular target: T6, Beta-lactamase (Pseudomonas aeruginosa, UniProt Q79MP6); assay: […] counterscreen for selective VIM-2 inhibitors: dose response biochemical high throughput screening assay to identify inhibitors of IMP-1 metallo-beta-lactamase.
[18] = molecular target: T6, Beta-lactamase; assay: IMP-1 metallo-beta-lactamase inhibitors, dose response, selectivity assay for VIM-2 inhibitor project, biochemical, epi-absorbance (AID 1920)
[19] = molecular target: T7, Streptokinase A (Streptococcus pyogenes serotype M1, UniProt P10520); assay: S. pyogenes streptokinase expression inhibitors, potency, dose response, plasminogen activation absorbance, OD405 (AID 1914); format: functional, Streptococcus pyogenes M1 GAS;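 further: secreted streptokinase activity via plasminogen activation per viability signal from cell pellet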
T7 sequence (P10520 whole entry): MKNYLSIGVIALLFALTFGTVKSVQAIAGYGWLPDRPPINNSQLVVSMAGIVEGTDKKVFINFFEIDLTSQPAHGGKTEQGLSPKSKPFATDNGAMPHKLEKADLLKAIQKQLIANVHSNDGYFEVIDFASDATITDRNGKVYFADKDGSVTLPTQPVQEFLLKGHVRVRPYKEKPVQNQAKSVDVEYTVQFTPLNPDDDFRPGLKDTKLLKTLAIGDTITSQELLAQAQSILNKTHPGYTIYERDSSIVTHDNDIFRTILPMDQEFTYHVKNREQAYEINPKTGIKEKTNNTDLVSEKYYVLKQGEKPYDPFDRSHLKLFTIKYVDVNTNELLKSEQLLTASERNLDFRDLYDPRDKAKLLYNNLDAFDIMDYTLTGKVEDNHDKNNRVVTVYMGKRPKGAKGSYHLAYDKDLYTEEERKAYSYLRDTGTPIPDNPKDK

[20] = system: Streptococcus; assay: Group A Streptococcus viability loss, dose response, counter-screen for streptokinase expression inhibitor project, luminescence, BacTiterGlo (AID 1915); format: functional, organism-based;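 further: potency for reduction of bacterial viability or growth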
[21] = system: Streptococcus sp. 'group A'; assay: growth inhibition of control SK(-) GAS strain, dose response, counter-screen for streptokinase expression inhibitor project, luminescence, kanamycin, BacTiterGlo, confirmation (AID 1900); format: functional, organism-based
[22] = molecular target: T8, Fatty acid synthase (Homo sapiens, UniProt P49327); assay: FAS thioesterase domain inhibitors, dose response, biochemical, kinetic fluorescence intensity (AID 624326); format: functional;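 further: rate of fluorescence rise from hydrolysis of a fluorogenic O-methyl fluorescein ester substrate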
[23] = molecular target: T8, Fatty acid synthase; assay: FAS thioesterase domain inhibitors, dose response, biochemical, endpoint fluorescence intensity, uHTS hits (AID 624327); format: functional;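 further: fluorescence from hydrolysis of an O-methyl fluorescein acyl ester substrate by the enzyme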
[24] = control 3'UTR Renilla luciferase suppression, dose response, counter-screen for Shn3 inhibitor project, cell-based, Clone20-Shn3RL, cherry-picked (AID 624133); format: functional
[25] = Shn3 3'UTR reporter inhibitors, dose response, cell-based, Clone20 osteoblasts, firefly luciferase, cherry-picked (AID 624132); format: functional;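 further: firefly luciferase luminescence from reporter carrying the Shn3 3'UTR in osteoblasts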
[26] = HepG2 cell cytotoxicity, dose response, cytotoxicity control for Shn3 inhibitor project, CellTiter-Glo, cherry-picked (AID 624134); format: functional, cell-based

T8 sequence (P49327 whole entry, the tested form may be a part): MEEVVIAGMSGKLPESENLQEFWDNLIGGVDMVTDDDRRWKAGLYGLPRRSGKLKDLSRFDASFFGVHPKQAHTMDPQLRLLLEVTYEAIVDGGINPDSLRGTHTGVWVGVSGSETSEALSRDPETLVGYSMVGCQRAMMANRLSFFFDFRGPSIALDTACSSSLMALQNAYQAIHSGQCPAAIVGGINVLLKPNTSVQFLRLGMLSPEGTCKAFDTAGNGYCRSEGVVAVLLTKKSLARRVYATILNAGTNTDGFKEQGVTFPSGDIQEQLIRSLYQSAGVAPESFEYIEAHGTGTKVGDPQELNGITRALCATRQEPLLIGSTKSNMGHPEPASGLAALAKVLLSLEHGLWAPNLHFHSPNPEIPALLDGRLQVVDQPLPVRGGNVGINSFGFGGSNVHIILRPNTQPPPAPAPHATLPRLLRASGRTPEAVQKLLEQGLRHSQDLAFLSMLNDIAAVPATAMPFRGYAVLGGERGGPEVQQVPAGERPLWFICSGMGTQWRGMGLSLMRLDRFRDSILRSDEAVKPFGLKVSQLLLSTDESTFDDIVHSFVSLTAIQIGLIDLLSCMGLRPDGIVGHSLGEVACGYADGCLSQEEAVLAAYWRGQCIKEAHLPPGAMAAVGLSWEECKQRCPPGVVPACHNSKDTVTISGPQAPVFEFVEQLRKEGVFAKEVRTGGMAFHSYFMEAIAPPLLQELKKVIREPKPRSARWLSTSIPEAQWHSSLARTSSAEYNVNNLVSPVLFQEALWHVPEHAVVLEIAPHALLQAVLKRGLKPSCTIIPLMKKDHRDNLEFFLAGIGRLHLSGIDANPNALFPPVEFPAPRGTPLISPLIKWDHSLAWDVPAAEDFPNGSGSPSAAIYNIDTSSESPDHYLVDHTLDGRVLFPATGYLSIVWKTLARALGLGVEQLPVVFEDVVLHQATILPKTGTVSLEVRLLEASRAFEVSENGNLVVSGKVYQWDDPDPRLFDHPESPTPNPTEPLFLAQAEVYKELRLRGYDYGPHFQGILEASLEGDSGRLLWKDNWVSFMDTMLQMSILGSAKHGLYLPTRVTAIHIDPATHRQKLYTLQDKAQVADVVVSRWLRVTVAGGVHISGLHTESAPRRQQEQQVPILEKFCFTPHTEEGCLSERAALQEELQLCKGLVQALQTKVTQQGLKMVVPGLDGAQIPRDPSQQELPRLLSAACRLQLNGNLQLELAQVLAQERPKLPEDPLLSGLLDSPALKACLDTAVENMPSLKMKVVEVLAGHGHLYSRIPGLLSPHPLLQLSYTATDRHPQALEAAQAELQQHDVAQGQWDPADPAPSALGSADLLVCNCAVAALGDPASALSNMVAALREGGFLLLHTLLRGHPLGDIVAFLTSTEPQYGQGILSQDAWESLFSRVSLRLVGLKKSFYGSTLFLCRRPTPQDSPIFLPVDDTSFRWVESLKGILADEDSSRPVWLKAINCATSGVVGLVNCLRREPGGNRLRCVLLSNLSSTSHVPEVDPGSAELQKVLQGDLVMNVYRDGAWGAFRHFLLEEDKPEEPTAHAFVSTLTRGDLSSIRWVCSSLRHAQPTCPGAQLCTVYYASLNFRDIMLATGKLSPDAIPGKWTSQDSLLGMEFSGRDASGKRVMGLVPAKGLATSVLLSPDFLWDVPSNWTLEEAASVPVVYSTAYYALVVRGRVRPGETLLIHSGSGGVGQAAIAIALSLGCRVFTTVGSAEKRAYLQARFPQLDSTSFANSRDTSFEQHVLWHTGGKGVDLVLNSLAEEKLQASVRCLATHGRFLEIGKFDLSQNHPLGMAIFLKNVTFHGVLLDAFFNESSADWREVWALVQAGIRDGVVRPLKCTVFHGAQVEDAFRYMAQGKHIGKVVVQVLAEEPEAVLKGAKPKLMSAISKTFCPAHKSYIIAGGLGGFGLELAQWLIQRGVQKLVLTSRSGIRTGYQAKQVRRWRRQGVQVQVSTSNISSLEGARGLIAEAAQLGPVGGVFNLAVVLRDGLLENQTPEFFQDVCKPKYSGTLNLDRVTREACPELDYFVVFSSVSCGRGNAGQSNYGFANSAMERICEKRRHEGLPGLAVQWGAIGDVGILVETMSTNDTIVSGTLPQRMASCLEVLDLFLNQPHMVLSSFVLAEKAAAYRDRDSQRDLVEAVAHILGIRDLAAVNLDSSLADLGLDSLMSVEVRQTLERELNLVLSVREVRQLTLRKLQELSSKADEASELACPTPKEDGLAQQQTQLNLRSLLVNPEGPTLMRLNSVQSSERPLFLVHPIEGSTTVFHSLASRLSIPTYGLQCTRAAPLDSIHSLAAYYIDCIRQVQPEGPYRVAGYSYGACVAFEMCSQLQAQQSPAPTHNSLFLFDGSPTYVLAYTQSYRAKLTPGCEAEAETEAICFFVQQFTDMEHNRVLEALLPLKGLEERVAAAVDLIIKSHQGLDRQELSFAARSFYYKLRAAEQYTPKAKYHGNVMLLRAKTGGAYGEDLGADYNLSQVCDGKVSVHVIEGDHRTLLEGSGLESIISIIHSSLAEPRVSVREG
T4 sequence (P63165 whole entry): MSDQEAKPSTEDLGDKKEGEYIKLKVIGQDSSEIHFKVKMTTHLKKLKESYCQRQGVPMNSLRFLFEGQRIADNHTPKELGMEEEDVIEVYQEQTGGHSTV
T6 sequence (Q79MP6 whole entry): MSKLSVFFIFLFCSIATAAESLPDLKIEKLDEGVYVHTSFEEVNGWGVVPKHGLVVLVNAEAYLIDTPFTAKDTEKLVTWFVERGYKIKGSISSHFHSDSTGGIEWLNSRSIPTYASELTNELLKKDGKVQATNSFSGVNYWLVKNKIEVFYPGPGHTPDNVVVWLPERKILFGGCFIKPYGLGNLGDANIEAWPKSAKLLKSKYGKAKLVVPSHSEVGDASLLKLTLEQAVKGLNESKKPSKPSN
Chain of Beta-lactamase (Salmonella choleraesuis (strain SC-B67), UniProt Q5J463) (Q5J463 whole entry): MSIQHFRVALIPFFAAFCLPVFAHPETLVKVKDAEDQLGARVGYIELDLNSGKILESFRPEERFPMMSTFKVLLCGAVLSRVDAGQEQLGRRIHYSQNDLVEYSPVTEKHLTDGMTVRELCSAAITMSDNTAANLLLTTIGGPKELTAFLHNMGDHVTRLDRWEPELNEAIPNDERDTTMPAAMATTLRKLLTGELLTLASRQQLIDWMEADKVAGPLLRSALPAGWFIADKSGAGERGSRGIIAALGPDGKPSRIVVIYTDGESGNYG
Chain of Photoreceptor-specific nuclear receptor (Q9Y5X4 whole entry, the tested form may be a part): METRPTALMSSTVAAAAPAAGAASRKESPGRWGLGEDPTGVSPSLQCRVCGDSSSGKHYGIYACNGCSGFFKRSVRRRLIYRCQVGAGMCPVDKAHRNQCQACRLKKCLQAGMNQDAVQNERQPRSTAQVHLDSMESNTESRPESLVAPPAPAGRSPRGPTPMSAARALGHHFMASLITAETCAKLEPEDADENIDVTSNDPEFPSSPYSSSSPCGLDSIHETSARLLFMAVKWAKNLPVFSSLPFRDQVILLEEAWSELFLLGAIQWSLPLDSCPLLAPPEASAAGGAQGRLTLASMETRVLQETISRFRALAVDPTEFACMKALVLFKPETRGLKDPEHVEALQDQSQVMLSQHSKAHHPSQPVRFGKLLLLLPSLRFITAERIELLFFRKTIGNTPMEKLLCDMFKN
Chain of Induced myeloid leukemia cell differentiation protein Mcl-1 (Q07820 whole entry): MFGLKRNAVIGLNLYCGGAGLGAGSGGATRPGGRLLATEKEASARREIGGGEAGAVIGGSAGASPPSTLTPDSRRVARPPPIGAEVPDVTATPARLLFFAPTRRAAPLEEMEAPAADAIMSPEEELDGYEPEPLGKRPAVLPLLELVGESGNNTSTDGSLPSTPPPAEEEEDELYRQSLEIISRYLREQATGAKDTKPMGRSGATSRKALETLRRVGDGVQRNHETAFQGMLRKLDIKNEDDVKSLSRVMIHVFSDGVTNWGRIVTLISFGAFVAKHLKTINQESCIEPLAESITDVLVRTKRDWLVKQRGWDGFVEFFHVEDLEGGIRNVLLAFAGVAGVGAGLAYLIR
Chain of Large T antigen (P03070 whole entry): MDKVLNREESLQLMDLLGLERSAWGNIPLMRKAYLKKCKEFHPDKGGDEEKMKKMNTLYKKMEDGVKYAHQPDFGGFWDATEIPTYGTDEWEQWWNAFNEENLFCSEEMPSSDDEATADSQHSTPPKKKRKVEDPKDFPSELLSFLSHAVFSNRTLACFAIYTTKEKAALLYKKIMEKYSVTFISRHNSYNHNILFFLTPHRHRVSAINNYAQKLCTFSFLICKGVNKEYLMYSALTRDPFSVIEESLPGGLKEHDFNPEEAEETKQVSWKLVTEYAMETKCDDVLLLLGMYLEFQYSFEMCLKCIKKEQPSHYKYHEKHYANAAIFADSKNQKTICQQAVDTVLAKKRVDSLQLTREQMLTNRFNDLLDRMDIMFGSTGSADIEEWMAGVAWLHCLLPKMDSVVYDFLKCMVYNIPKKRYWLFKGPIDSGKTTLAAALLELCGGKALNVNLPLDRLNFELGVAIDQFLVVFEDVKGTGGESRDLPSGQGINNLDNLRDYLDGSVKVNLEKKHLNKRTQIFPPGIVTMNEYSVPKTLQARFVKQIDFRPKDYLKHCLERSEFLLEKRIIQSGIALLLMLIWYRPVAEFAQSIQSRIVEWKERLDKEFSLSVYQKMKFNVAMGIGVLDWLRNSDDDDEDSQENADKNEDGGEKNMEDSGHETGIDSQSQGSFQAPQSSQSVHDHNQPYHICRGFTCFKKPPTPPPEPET

CCOC(=O)c1c(C)n(-c2ccc(C)cc2)c2ccc(OCC(O)CNCC3CCCO3)cc12 (configuration not stated)
EC50 [1]: > 60 µM (not active) | IC50 [2]: 131 µM (active) | CC50 [3]: 39.7 µM (active) | IC50 [4]: > 20 µM (inactive) | CC50 [5]: 13.2 µM (active) | EC50 [6]: 1.51 µM (active)

CCCCN1C(=O)/C(=C/C=C/c2ccco2)C(=O)NC1=S
IC50 [7]: 2.18 µM (active) | IC50 [8]: 3.39 µM (active) | IC50 [9]: 7.95 µM (active) | AC50 [10]: 4.72 µM (active)

CC(C)C[C@@H](CNCC(=O)[C@H](Cc1ccccc1)NC(=O)c1nc[nH]c1C(=O)N[C@H](CN)CC(C)C)NC(=O)c1[nH]cnc1C(=O)N[C@@H](CC(=O)O)C(=O)O
IC50 [11]: > 66.6 µM (inactive) | IC50 [12]: 20.4 µM (inactive)

C#Cc1cccc(Nc2nc(NCc3ccccc3)nc3ccsc23)c1
IC50 [13]: 7.02 µM (active)

Nc1nc(N)c(Cc2ccc(Cl)cc2Cl)c(N)n1
IC50 [14]: 7.44 µM (active) | IC50 [15]: 11.9 µM (active)

Cc1n[nH]c(C)c1CCCCOc1ccc([N+](=O)[O-])cc1
IC50 [16]: > 59.6 µM (inactive) | IC50 [17]: > 59.6 µM (inactive) | IC50 [18]: > 59.6 µM (inactive)

Cc1c(C)c2ccc(OCC(=O)N3CCC[C@@H]3C(=O)O)c(C)c2oc1=O
IC50 [16]: > 59.6 µM (inactive) | IC50 [17]: > 59.6 µM (inactive) | IC50 [18]: > 59.6 µM (inactive)

COc1ccc(-c2csc(NC(=S)NC(=O)c3cccs3)n2)cc1OC
IC50 [11]: > 66.6 µM (inactive) | EC50 [19]: > 150 µM (not active) | EC50 [20]: 74.3 µM (active) | IC50 [12]: 7.27 µM (active) | EC50 [21]: 23.4 µM (active)

Cc1cc(=O)n2nc(-c3ccc(C(C)(C)C)cc3)cc2[nH]1
EC50 [1]: > 60 µM (not active) | EC50 [6]: 0.646 µM (active) | IC50 [22]: 15 µM (active) | IC50 [23]: 9.51 µM (active)

CC(=O)Nc1cc(O)c2cccnc2n1
IC50 [14]: 25.9 µM (inactive) | IC50 [15]: 38.7 µM (inactive)

CC(C)Oc1ccc(Cc2nnc(S)n2Cc2ccccc2)cc1Cl
IC50 [22]: 6.09 µM (active) | IC50 [23]: 6.4 µM (active)

CC(C)OCCCNc1nc(-c2ccccc2)nc2ccccc12
IC50 [14]: 11.7 µM (active) | IC50 [15]: 22.9 µM (inactive)

NS(=O)(=O)c1ccc(CCNc2nn3c(-c4cccc(OC(F)(F)F)c4)cnc3s2)cc1
AC50 [24]: 0.852 µM (active) | AC50 [25]: 3.93 µM (active) | AC50 [26]: 52.5 µM (active) | IC50 [13]: 6.96 µM (active)

O=[N+]([O-])c1ccc(S(=O)(=O)N/N=C/c2ccc3c(c2)OCO3)cc1
IC50 [22]: 5.36 µM (active) | IC50 [23]: 5.55 µM (active)
